In the supplement of paper PMC5412046:

Tests used:
SB.msgc-1 [1] = experiment: viability at highest tested concentration (MAXR) relative to DMSO; higher = less cytotoxic; conditions: SB.msgc-1 (sporadic gastric cancer)
Procedure, shortened: (§1)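 Gastric cancer cells derived from hereditary or sporadic patients were treated for 48 h with compound at 11 threefold dilutions, with the top concentration recorded per compound. Viability was then read by CellTiter-Glo luminescence. Data are viability normalised to DMSO, at the highest concentration or as trapezoidal area under the curve.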

SB.mhdgc-1 [2] = experiment: as above; conditions: SB.mhdgc-1 (hereditary c.1380delA CDH1 gastric cancer)
Procedure, shortened: as §1

SB.msgc-1 [3] = experiment: area under the dose-response curve of % viability (trapezoidal, 11 doses) (% viability x log10 concentration); higher = less cytotoxic; conditions: SB.msgc-1 (sporadic gastric cancer)
Procedure, shortened: as §1

SB.mhdgc-1 [4] = experiment: as above; conditions: SB.mhdgc-1 (hereditary c.1380delA CDH1 gastric cancer)
Procedure, shortened: as §1

Compound: COc1ccc(N(C(=O)Oc2c(C)cccc2C)c2ccnc(Nc3ccc(N4CCN(C)CC4)cc3)n2)c(OC)c1 (top concentration 46.0829 µM)
- viability (SB.msgc-1 [1]): 39.9%
- viability (SB.mhdgc-1 [2]): 47.4%
- area under the dose-response curve (SB.msgc-1 [3]): 417
- area under the dose-response curve (SB.mhdgc-1 [4]): 350

Compound: COCCOc1ccc2c(c1)ncn2-c1ccc2cccc(N3CCC(N)CC3)c2n1 (top concentration 46.0829 µM)
- viability (SB.msgc-1 [1]): 43.4%
- viability (SB.mhdgc-1 [2]): 3.21%
- area under the dose-response curve (SB.msgc-1 [3]): 446
- area under the dose-response curve (SB.mhdgc-1 [4]): 424

Compound: C[C@H](c1ccc(F)cc1CCCC(=O)O)N(c1cc(F)ccc1F)[S+](=O)([O-])c1ccc(Cl)cc1 (top concentration 46.0829 µM)
- viability (SB.msgc-1 [1]): 70.5%
- viability (SB.mhdgc-1 [2]): 40.2%
- area under the dose-response curve (SB.msgc-1 [3]): 509
- area under the dose-response curve (SB.mhdgc-1 [4]): 450

Compound: C[C@@H](N)c1ccc(C(=O)Nc2ccnc3[nH]ccc23)cc1 (top concentration 46.0829 µM)
- viability (SB.msgc-1 [1]): 39.3%
- viability (SB.mhdgc-1 [2]): 12.7%
- area under the dose-response curve (SB.msgc-1 [3]): 474
- area under the dose-response curve (SB.mhdgc-1 [4]): 402

Compound: C[C@H](NC(=O)c1sccc1OCc1ccc(Cl)cc1)c1ccccc1 (top concentration 46.0829 µM)
- viability (SB.msgc-1 [1]): 43.3%
- viability (SB.mhdgc-1 [2]): 45.7%
- area under the dose-response curve (SB.msgc-1 [3]): 491
- area under the dose-response curve (SB.mhdgc-1 [4]): 435

Compound: C[C@H](NC(=O)[C@@H](O)c1cc(F)cc(F)c1)C(=O)N[C@@H]1C(=O)N(C)c2ccccc2-c2ccccc21 (top concentration 46.0829 µM)
- viability (SB.msgc-1 [1]): 97.4%
- viability (SB.mhdgc-1 [2]): 88.9%
- area under the dose-response curve (SB.msgc-1 [3]): 522
- area under the dose-response curve (SB.mhdgc-1 [4]): 500

Compound: C[C@](Cc1c[nH]c2ccccc12)(NC(=O)OC1C2CC3CC(C2)CC1C3)C(=O)NC[C@H](NC(=O)CCC(=O)O)c1ccccc1 (stereo partly specified) (top concentration 46.0829 µM)
- viability (SB.msgc-1 [1]): 101%
- viability (SB.mhdgc-1 [2]): 59.9%
- area under the dose-response curve (SB.msgc-1 [3]): 513
- area under the dose-response curve (SB.mhdgc-1 [4]): 498

Compound: C[C@]\1(CCS\C(=N1)N)C2=CC(=C(F)C=C2F)C3=CN=CN=C3 (top concentration 46.0829 µM)
- viability (SB.msgc-1 [1]): 44.7%
- viability (SB.mhdgc-1 [2]): 33.3%
- area under the dose-response curve (SB.msgc-1 [3]): 500
- area under the dose-response curve (SB.mhdgc-1 [4]): 464

Compound: C[N]1C=C(C=N1)C2=CC=C3N=CC\4=C(N(C(=O)\C=C4)C5=CC6=C(CCN6C(=O)C=C)C=C5)C3=C2 (top concentration 46.0829 µM)
- viability (SB.msgc-1 [1]): 41.1%
- viability (SB.mhdgc-1 [2]): 1.79%
- area under the dose-response curve (SB.msgc-1 [3]): 496
- area under the dose-response curve (SB.mhdgc-1 [4]): 381

Compound: CC(=O)N1CCN(c2ccc(OCc3nn(C)c(C)c3-c3cccc4c(CCCOc5cc(C)c(Cl)c(C)c5)c(C(=O)O)n(Cc5cccnc5)c34)cc2)CC1 (top concentration 46.0829 µM)
- viability (SB.msgc-1 [1]): 26.9%
- viability (SB.mhdgc-1 [2]): 48.8%
- area under the dose-response curve (SB.msgc-1 [3]): 498
- area under the dose-response curve (SB.mhdgc-1 [4]): 425

Compound: CC(=O)N1CCN(c2ccc(OCc3nn(C)c(C)c3-c3cccc4c(CCCOc5cccc6ccccc56)c(C(=O)O)n(Cc5cccnc5)c34)cc2)CC1 (top concentration 46.0829 µM)
- viability (SB.msgc-1 [1]): 2.94%
- viability (SB.mhdgc-1 [2]): 0.82%
- area under the dose-response curve (SB.msgc-1 [3]): 355
- area under the dose-response curve (SB.mhdgc-1 [4]): 321

Compound: O=C(NCC1CCOCC1)c1cnc(Nc2ccc(Cl)cc2Cl)nc1C(F)(F)F (top concentration 46.0829 µM)
- viability (SB.msgc-1 [1]): 6.36%
- viability (SB.mhdgc-1 [2]): 7.1%
- area under the dose-response curve (SB.msgc-1 [3]): 539
- area under the dose-response curve (SB.mhdgc-1 [4]): 519

Compound: O=C(c1ccc(F)cc1)N1CCC[C@H](c2nc(-c3ccc(F)cc3)no2)C1 (top concentration 46.0829 µM)
- viability (SB.msgc-1 [1]): 104%
- viability (SB.mhdgc-1 [2]): 76.5%
- area under the dose-response curve (SB.msgc-1 [3]): 582
- area under the dose-response curve (SB.mhdgc-1 [4]): 500

Compound: NC(=O)c1noc([C@H](CCCC2CCCCC2)CC(=O)NO)n1 (top concentration 46.0829 µM)
- viability (SB.msgc-1 [1]): 69.5%
- viability (SB.mhdgc-1 [2]): 41%
- area under the dose-response curve (SB.msgc-1 [3]): 563
- area under the dose-response curve (SB.mhdgc-1 [4]): 570

Compound: NC\1=N\C(=O)N(\C=C1F)[C@H]2C[C@H](O)[C@@H](CO)O2 (top concentration 46.0829 µM)
- viability (SB.msgc-1 [1]): 47.4%
- viability (SB.mhdgc-1 [2]): 32.6%
- area under the dose-response curve (SB.msgc-1 [3]): 369
- area under the dose-response curve (SB.mhdgc-1 [4]): 229

Compound: N[S+]([O-])(=O)C1=CC=C(NC/2=C/C(=O)C3=CC=CC=C3C2=O)C=C1 (top concentration 46.0829 µM)
- viability (SB.msgc-1 [1]): 34.2%
- viability (SB.mhdgc-1 [2]): 0.53%
- area under the dose-response curve (SB.msgc-1 [3]): 500
- area under the dose-response curve (SB.mhdgc-1 [4]): 301

Compound: O=C(NC1CC1)c1cccc(-c2ccc3c(NC(=O)C4CC4)n[nH]c3c2)c1 (top concentration 46.0829 µM)
- viability (SB.msgc-1 [1]): 34.6%
- viability (SB.mhdgc-1 [2]): 22.1%
- area under the dose-response curve (SB.msgc-1 [3]): 398
- area under the dose-response curve (SB.mhdgc-1 [4]): 289

Compound: O=C1NCCc2[nH]c(-c3ccncc3)cc21 (top concentration 46.0829 µM)
- viability (SB.msgc-1 [1]): 51%
- viability (SB.mhdgc-1 [2]): 79.8%
- area under the dose-response curve (SB.msgc-1 [3]): 450
- area under the dose-response curve (SB.mhdgc-1 [4]): 472

Compound: O=C(O)C1CCCN(CCC=C(c2ccccc2)c2ccccc2)C1 (stereo unspecified) (top concentration 46.0829 µM)
- viability (SB.msgc-1 [1]): 60.3%
- viability (SB.mhdgc-1 [2]): 47.8%
- area under the dose-response curve (SB.msgc-1 [3]): 523
- area under the dose-response curve (SB.mhdgc-1 [4]): 506

Compound: O=[S+]([O-])(O)c1ccc2cc(/N=N/c3cc([S+](=O)([O-])O)c4cccnc4c3O)ccc2c1 (top concentration 46.0829 µM)
- viability (SB.msgc-1 [1]): 36.3%
- viability (SB.mhdgc-1 [2]): 35.2%
- area under the dose-response curve (SB.msgc-1 [3]): 513
- area under the dose-response curve (SB.mhdgc-1 [4]): 509

Compound: Oc1ccc(C2CCN(c3ccnc4ccccc34)CC2)cc1O (top concentration 46.0829 µM)
- viability (SB.msgc-1 [1]): 74.5%
- viability (SB.mhdgc-1 [2]): 43.7%
- area under the dose-response curve (SB.msgc-1 [3]): 507
- area under the dose-response curve (SB.mhdgc-1 [4]): 408

Compound: OC1CCC(Nc2ncc3nc(Nc4c(F)cc(F)cc4F)n([C@@H]4CCOC4)c3n2)CC1 (stereo partly specified) (top concentration 46.0829 µM)
- viability (SB.msgc-1 [1]): 97%
- viability (SB.mhdgc-1 [2]): 92.7%
- area under the dose-response curve (SB.msgc-1 [3]): 502
- area under the dose-response curve (SB.mhdgc-1 [4]): 505

Compound: OCCCNc1cc(-c2ccnc(Nc3cccc(Cl)c3)n2)ccn1 (top concentration 46.0829 µM)
- viability (SB.msgc-1 [1]): 38.1%
- viability (SB.mhdgc-1 [2]): 23.2%
- area under the dose-response curve (SB.msgc-1 [3]): 369
- area under the dose-response curve (SB.mhdgc-1 [4]): 360

Compound: O=[N+]([O-])c1ccc(Nc2ccccc2-c2ccccc2)c2nonc12 (top concentration 46.0829 µM)
- viability (SB.msgc-1 [1]): 42.5%
- viability (SB.mhdgc-1 [2]): 35.7%
- area under the dose-response curve (SB.msgc-1 [3]): 436
- area under the dose-response curve (SB.mhdgc-1 [4]): 423
